# According to patent US10995068B2, “Synthetic sphingolipid-like molecules, drugs, methods of their synthesis and methods of treatment” (The Regents of the University of California, priority 2015, dated 2021):
# What was measured:
# [1] = test system: mPCE subcutaneous isografts; assay: mPCE subcutaneous prostate isografts; format: in vivo; settings: C57BL/6 mice
# Description: The ability of starvation-inducing sphingolipid-like drugs to affect the growth of slow growing or autochthonous neoplasms was also evaluated. In C57BL/6 mice bearing mPCE subcutaneous isografts, 60 mg/kg SH-BC-893 was given daily by gavage and slowed tumor growth by 60% similar to results with SW620 xenografts dosed with 20 mg/kg i.p. (FIGS. 53G-I and 65I). At 120 mg/kg, SH-BC-893 inhibited prostate tumor growth by more than 90% (FIG. 65I). […] Akt activity was slightly elevated by SH-BC-893 consistent with loss of TORC1-mediated negative feedback. Thus, sphingolipid-like compounds, such as SH-BC-893, are effective against neoplasms with distinct molecular defects and metabolic characteristics.
# In vivo studies. Experiments conducted in mice were performed in accordance with the Institutional Animal Care and Use Committee of University of California, Irvine following a power analysis conducted in consultation with the Biostatistics Shared Resource of Chao Family Comprehensive Cancer Center at UCI. […] Tumor volume was calculated using the formula, volume (mm^3)=length [mm]×(width [mm])^2×0.52; BLI was measured using an IVIS imaging system (Xenogen). […] Blood chemistry was analyzed by IDEXX BioResearch and complete blood counts were performed using a Hemavet hematology system.
# [2] = test system: non-transformed murine OP9 bone marrow stromal cells and primary murine embryonic fibroblasts (MEFs); assay: Sensitivity of non-transformed cells versus cancer cell lines; format: cell-based; settings: OP9 and primary MEFs versus DLD-1, LS180, SW48, SW480, SW620, MDA-MB-231, PANC-1
# Description: Consistent with the bioenergetic mechanism described supra, cells with a higher anabolic rate should be more sensitive to sphingolipid-like compounds. In exemplary experiments testing this mechanism, murine FL5.12 cells with different anabolic rates were treated with SH-BC-893. The anabolic rate of FL5.12 cells can be titrated by modulating the levels of their required growth factor, IL-3; comparing FL5.12 cells grown in high and low IL-3 allows the impact of elevated growth factor signaling and anabolism to be evaluated in a constant genetic background. High concentrations of IL-3 drive aerobic glycolysis and a rapid doubling time (12 h). Reducing IL-3 levels slows proliferation and increases oxidative phosphorylation without compromising cell viability (FIGS. 53A and 53B). […] Many of these cancer cell lines carry activating mutations in Ras. […]
# Cell culture and reagents. […] Cell viability was measured by vital dye exclusion using either propidium iodide or DAPI at 1 μg/ml. Analysis of cell surface 4F2hc levels with PE-conjugated anti-CD98 was restricted to viable cells as determined by DAPI exclusion. Anchorage-independent growth of SW620 cells was measured in DMEM-10 containing 0.35% low melt agarose with a 0.5% agarose bottom layer. […]
smiles,measurement,setting,value
"CCCCCCCCc1ccc([C@H]2CCN[C@@H]2CO)cc1.Cl [Compound 5, (2S,3R)-2-(hydroxymethyl)-3-(4-octylphenyl)Pyrrolidinium chloride]",slowing of tumor growth,[1]; 60 mg/kg daily by gavage,60%
same,inhibition of prostate tumor growth,[1]; 120 mg/kg,more than 90%
same,sensitivity compared with human cancer cell lines,[2],less sensitive
